Measured values published in US9952300B2, “Dynamic contrast enhanced MRI method and agents for the assessment of the macromolecular transport within pathologic tissues” (BRACCO IMAGING S.P.A., priority 2012, dated 2018).
Where “and” joins values, the source holds several entries; their conditions need not be identical. Equal entries are not always repeated.

Legend:
[1] = system: PC-3 human prostate adenocarcinoma tumor; assay: DCE-MRI of contrast agent kinetics in PC-3 tumors of Axitinib- or vehicle-treated mice (Example 3); type: in vivo, NCR athymic nude mice; settings: contrast agent 100 μmol/kg i.v., one value per animal, trisodium salt
Description: The comparative test has been performed using NCR athymic nude mice implanted with PC-3 cells (a human prostate cancer line) and treated with Axitinib®, a VEGFRs inhibitor, (to modulate the tumor vascular permeability) by a protocol which timing is for instance schematized in FIG. 1. Scope of the test was to compare the image-based analysis of the albumin distribution in a human tumor model as extracted from the analysis of a time-serie of MRI images (with spatial resolution of around 110 μm) acquired with the method of the invention after injection of B22956/1 as contrast agent, and the distribution of FITC-BSA (Fluorescent isothiocyanate Bovine Serum Albumin) albumin inside and outside vessels histologically determined from fluorescent microscopy images on a scale of microns.
In particular, the trans-endothelial permeability (K^Trans) and the fractional plasma volume (fPV) were calculated from dynamic MR data by application of a bi-compartmental pharmacokinetic model, while the Initial Area Under the Curve (IAUCT) was calculated in several time windows, typically comprised between the contrast agent administration and the end of the MRI acquisition. The macromolecular penetration in tumors was, then, probed by fluorescently labelled Bovine Serum Albumin administered via tail vein after the last MRI session. Microscopic images were used to quantify the percentage of area stained by fluorescent albumin in the tumor, as a measure of the blood vessel density, using an automatic thresholding method. The albumin extravasation in the tumor extravascular space was assessed based on the fluorescence found out of the blood vessels from histological samples taken from both of tumor rim and core, for instance as schematized in FIG. 2. In particular, the albumin florescence was averaged over all pixels at a given distance from the nearest vessel and stored as a function of distance from the vessels walls, by use of an optimized procedure, for instance schematized in FIG. 3, providing both a quantification of the availability of the albumin in the extravascular space of the concerned tumor, namely the amount of the extravasated FITC-Albumin, and the decay of its concentration over the distance x from a nearest vessel, or, in other words, its actual distribution and dilution within the extracellular spaces (for instance as schematized in FIG. 4).
Human prostate adenocarcinoma cells (PC-3) were supplied by ATCC (American Type Culture Collection) and grown in Hams F-12 medium supplemented with 10% foetal bovine serum, 2 mM glutamine, 100 IU/mL penicillin and 100 μg/mL streptomycin (all from Lonza, Verviers, Belgium). […] Tumour development was followed by palpation and measured by calliper every 2-3 days until the end of the experiment. […]

[2] = system: WM1552/5 melanoma xenografts; assay: DCE-MRI with B22956/1 in WM1552/5 melanoma xenografts 24 h after PTX (Example 4); type: in vivo, NCr-nu/nu mice; settings: WM1552/5 tumor rim and core, 24 h after PTX 20 mg/kg i.v.
Description: Indeed, the potential of non-covalent protein binding contrast agents according the invention to provide in vivo suitable estimates of the effect promoted by a therapeutic agent such as, for instance, an EPR-enhancing agent, i.e. an agent devoted to enhance the uptake of the co-administered macromolecular drug in the tumor area, has been investigated by means of Dynamic Contrast Enhanced MRI tests performed in vivo with B22956/1, used as representative agent according to the invention, on melanoma cancer model xenografts in nude mice treated with vehicle or Paclitaxel (PTX). […] Jain, R. K. & Stylianopoulos, T. Nat. Rev. Clin. Oncol. 2010, 7: 653-664).
Six- to eight-week-old female NCr-nu/nu mice, obtained from Harlan (Correzzana, Italy) were maintained under specific pathogen-free conditions and handled using aseptic procedures throughout the whole study. […]
PTX- and vehicle-treated nude mice bearing WM1552/5 melanoma xenografts (N=4 mice per group) were analyzed by DCE-MRI 24 h after PTX administration. […] Pre-contrast T1 values in tumors were measured using a multislice variable flip-angle FLASH. […]
Differences in the kinetics of distribution of the contrast agent (DCE-MRI) were analyzed by Mann Whitney U test.

Compound: C[C@H](CCC(=O)[O-])[C@H]1CC[C@H]2[C@@H]3CC[C@@H]4C[C@@H](NC(=O)CC[C@@H](C(=O)[O-])N(CCN(CC(=O)[O-])CC(=O)[O-])CCN(CC(=O)[O-])CC(=O)[O-])CC[C@]4(C)[C@H]3C[C@H](O)[C@]12C.[Gd+3].[Na+].[Na+].[Na+] [B22956/1, Gadocoletic acid trisodium salt]
- kTrans (Transfer Constant) ([1]; tumor core): 1.09 mL\(min × g) × 100 and 0.98 mL\(min × g) × 100 (2×) and 0.40 mL\(min × g) × 100 (2×) and 1.81 mL\(min × g) × 100 and 0.31 mL\(min × g) × 100 and 0.95 mL\(min × g) × 100 and 0.44 mL\(min × g) × 100 and 1.77 mL\(min × g) × 100 and 1.82 mL\(min × g) × 100 and 1.57 mL\(min × g) × 100 and 1.29 mL\(min × g) × 100 and 1.85 mL\(min × g) × 100 and 1.20 mL\(min × g) × 100
- kTrans (Transfer Constant) ([1]; tumor rim): 2.45 mL\(min × g) × 100 and 1.91 mL\(min × g) × 100 (2×) and 0.83 mL\(min × g) × 100 and 2.30 mL\(min × g) × 100 and 1.06 mL\(min × g) × 100 and 1.76 mL\(min × g) × 100 and 1.33 mL\(min × g) × 100 and 3.00 mL\(min × g) × 100 and 1.68 mL\(min × g) × 100 and 2.77 mL\(min × g) × 100 and 2.15 mL\(min × g) × 100 and 2.37 mL\(min × g) × 100 and 1.17 mL\(min × g) × 100 and 3.22 mL\(min × g) × 100 and 2.24 mL\(min × g) × 100

Compound: CC(=O)O[C@H]1C(=O)[C@@]2(C)[C@H]([C@H](OC(=O)c3ccccc3)[C@]3(O)C[C@H](OC(=O)[C@H](O)[C@@H](NC(=O)c4ccccc4)c4ccccc4)C(C)=C1C3(C)C)[C@]1(OC(C)=O)CO[C@@H]1C[C@@H]2O [PTX, Paclitaxel]
- K^trans measured with B22956/1, pre-treated versus vehicle [2]: statistically significant increase
- fractional plasma volume fPV (%) measured with B22956/1, pre-treated versus vehicle [2]: statistically significant increase
